Assay results: patent US11207312B2, “Metallo-beta-lactamase inhibitors and methods of use thereof” (priority 2017, dated 2021)
Where two headings read alike, the source gives them in different places.

What was measured:
VIM-2 = VIM-2 (Escherichia coli, UniProt Q5U7L7); assay: biochemical
[1] = tested on: P. aeruginosa MB9798 (efflux+, IMP-1 plasmid); conditions: for MB9798 MITC95 P. aeruginosa uM Efflux WT: efflux + (MB9798) strain, imipenem at 2 μg/mL, in the presence of a class A, C, D serine β-lactamase inhibitor closely related to relebactam; for Efflux ratio: fold difference between efflux+ (MB9798) and efflux− (MB9799) strains
Excerpt: (§1) The strain background is Pseudomonas aeruginosa PAO1. A wild-type (M135919) and an isogenic strain in which multiple efflux pumps have been disrupted genetically were used. The MBL IMP-1, obtained from a clinical isolate was introduced into the strain pair by the following process:
(§2) The plasmid DNA was transformed into parental MB5919 (oprD+, efflux+, inducible AmpC) and MB5890 (oprD+, efflux−, inducible AmpC) isogenic strains by electroporation.
(§3) The strain set was then used as a pair to determine the effect of metallo-β-lactamase inhibitors of Formula I on the MIC of imipenem and/or ceftazidime. A fixed concentration of antibiotic is included in standard microbroth MIC tests, usually at the CLSI breakpoint concentration, A fixed amount of a class A/C beta-lactamase inhibitor is also included to inhibit the resident Pseudomonas AmpC enzyme. A serial titration of the metallo-β-lactamase inhibitor was included and the concentration of metallo-β-lactamase inhibitor which restores susceptibility of the strain to the included antibiotic was recorded. That concentration of metallo-β-lactamase inhibitor was then compared between the two strains to determine the fold difference between the efflux+(MB9798) and efflux−(MI39799) strains, which indicates the extent to which the MBLi is subject to efflux.

IMP-1 = IMP-1 (Serratia marcescens, UniProt P52699); assay: biochemical; conditions: CCF2-FA fluorescence assay, 2 hours at 25° C.; read-out: IMP1 IC50
Experimental: (§4) The Class B enzyme activities were measured in the presence of the test inhibitor in a fluorescence assay against a commercially available substrate consisting of a cephalosporin core linking 7-hydroxycoumarin to fluorescein (CCF2-FA). The enzyme (NDM-1, IMP-1 or VIM-1) and the substrate were diluted in 100 mM KH2PO4 buffer (pH 7) containing 0.005% Tween-20 and 10 μM ZnSO4. In the assay, the final concentration of enzyme was 1 pM, 2 pM and 30 pM for NDM-1, IMP-1 and VIM-1, respectively, and the final concentration of CCF2-FA was 1.25 μM. The test inhibitor was dissolved in dimethylsulfoxide and diluted 1:50 in the assay, resulting in a final concentration range of 20 μM to 0.00063 μM. In a 384-well microplate, the test inhibitor was incubated with the metallo-β-lactamase enzyme and the substrate for 2 hours at 25° C. Fluorescence at 460 nm following excitation at 405 nm was measured. The IC50 value was determined from semi-logarithmic plots of enzyme inhibition versus inhibitor concentration, with a curve generated using a 4-parameter fit.

VIM-1 = VIM-1 (Pseudomonas aeruginosa (strain ATCC 15692 / DSM 22644 / CIP 104116 / JCM 14847 / LMG 12228 / 1C / PRS 101 / PAO1), UniProt A0A0F7KYQ8); assay: biochemical; conditions: CCF2-FA fluorescence assay, 2 hours at 25° C.; read-out: VIM1 IC50
Experimental: as §4

[2] = tested on: P. aeruginosa MB9799 (efflux-, IMP-1 plasmid); format: cell-based, Pseudomonas aeruginosa; conditions: efflux − (MB9799) strain; imipenem at 2 μg/mL; in the presence of a class A, C, D serine β-lactamase inhibitor closely related to relebactam
Excerpt: as §1, §2, §3

[3] = tested on: Escherichia coli expressing NDM-1 (CLB30016); format: cell-based; conditions: with imipenem 1 μg/ml; 95% inhibition of bacterial growth
Experimental: (§5) The bacterial strains tested included the clinical strains Escherichia coil expressing NDM-1 (CLB30005, CLB30016), Serratia marcescens expressing IMP-1 (CL5741), and Klebsiella pneumoniae expressing VIM-1 (H-LMA599644). Inhibitor activity was measured in the presence and absence of imipenem in a 384-well microplate.
(§6) The clinical strains CLB30016, CL5741 and IHMA599644 were grown on trypticase soy agar containing 5% sheep's blood. The bacteria on agar plates were incubated at 35° C. with humidity overnight. The following day, individual colonies from each clinical strain were picked and resuspended in 5 ml saline to attain an OD600 of […], for CLB30016, C15741 and IHMA599644, respectively. These were further diluted 1:100 into 1.1× CAMHB and used to inoculate the test wells as described below.
(§7) Imipenem in 10 mM 3-(N-morpholino)propanesulfonic acid (MOPS, pH 7) was stored in single use aliquots at −80° C. […] On the day of the assay, 4 μl of antibiotic was added to 45 μl of bacteria followed by 1 μl of test compound and mixed by pipetting and with an orbital shaker. The concentration of antibiotic used in the assay was 1 μg/ml. Microplates were covered and incubated at 35° C. for 22 hours to 24 hours. At the end of the incubation, absorbance was determined using a spectrophotometer. The synergistic concentration of MBLI was determined by identifying the lowest concentration of test compound in the presence of a given concentration of antibiotic that was required to inhibit 95% of the growth of the bacteria. The results for Examples 1-209 are reported in Table 1, expressed as the concentration of compound that potentiated the action of antibiotic (imipenem) affecting 95% inhibition of bacterial growth (MITC95).

[4] = tested on: Serratia marcescens expressing IMP-1 (CL5741); format: cell-based; conditions: with imipenem 1 μg/ml; 95% inhibition of bacterial growth
Experimental: as §5, §6, §7

[5] = tested on: Klebsiella pneumoniae expressing VIM-1 (IHMA599644); format: cell-based; conditions: with imipenem 1 μg/ml; 95% inhibition of bacterial growth
Experimental: as §5, §6, §7

NDM-1 = NDM-1 (Klebsiella pneumoniae, UniProt C7C422); assay: biochemical; format: biochemical; conditions: CCF2-FA fluorescence assay, 2 hours at 25° C.
Experimental: as §4

[6] = CCF2-FA fluorescence assay, read-out: VIM2 IC50

Sequence of IMP-1 (P52699 whole entry, looked up, species assumed): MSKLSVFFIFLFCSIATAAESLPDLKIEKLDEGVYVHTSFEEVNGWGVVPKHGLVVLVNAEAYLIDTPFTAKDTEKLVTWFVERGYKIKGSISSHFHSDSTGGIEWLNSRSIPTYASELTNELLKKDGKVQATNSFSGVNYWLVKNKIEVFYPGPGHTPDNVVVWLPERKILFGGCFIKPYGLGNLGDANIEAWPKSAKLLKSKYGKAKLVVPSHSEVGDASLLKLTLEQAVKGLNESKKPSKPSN
Sequence of NDM-1 (C7C422 whole entry, looked up, species assumed): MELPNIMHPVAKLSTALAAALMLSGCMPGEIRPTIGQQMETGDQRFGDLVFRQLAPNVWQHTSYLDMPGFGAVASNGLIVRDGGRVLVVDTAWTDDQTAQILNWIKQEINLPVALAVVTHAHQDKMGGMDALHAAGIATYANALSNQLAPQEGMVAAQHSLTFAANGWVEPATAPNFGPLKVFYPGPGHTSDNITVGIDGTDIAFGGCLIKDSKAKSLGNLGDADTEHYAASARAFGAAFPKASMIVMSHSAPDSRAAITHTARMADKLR

SMILES	IC50 (VIM-2; [6]) [nM]	MB9798 MITC95 P. aeruginosa uM Efflux WT [1] [µM]	Efflux ratio [1]	IC50 (IMP-1) [nM]	IC50 (VIM-1) [nM]	MB9799 MITC95 P. aeruginosa uM Efflux Mutant [2] [µM]	CLB30016 E. coli MITC95 NDM [3] [µM]	CL5741 S. marcescens MITC95 IMP [4] [µM]	IHMA599644 K. pneumoniae MITC95 VIM [5] [µM]	IC50 (NDM-1) [nM]	IC50 (VIM-2; VIM2 IC50, CCF2-FA fluorescence assay) [nM]
NC[C@@H](O)CNS(=O)(=O)c1ccc(N2CCC(C(N)CO)CC2)c(-c2nn[nH]n2)c1S(N)(=O)=O (mixture of isomers) [Example 182, 4-(4-(1-Amino-2-hydroxyethyl)piperidin-1-yl)-N1-((R)-3-amino-2-hydroxypropyl)-3-(2H-tetrazol-5-yl)benzene-1,2-disulfonamide]	3.82	0.78	1.00	4	0.27	0.78	0.39	0.78	1.56	3.77	–
C[C@H](CN)NS(=O)(=O)c1ccc(N2CC[C@@H](N)[C@@H](F)C2)c(-c2nn[nH]n2)c1S(N)(=O)=O (racemic) [Example 5]	2.54	0.78	2.00	1.81	0.13	0.39	0.10	0.20	0.78	0.96	–
NC[C@@H](O)CNS(=O)(=O)c1ccc(N2CC[C@@H](CN)[C@@H](F)C2)c(-c2nn[nH]n2)c1S(N)(=O)=O (racemic) [Example 6]	4.19	0.78	2.00	3.38	0.17	0.39	0.20	0.20	0.78	1.12	–
NC[C@@H]1CCN(c2ccc(S(=O)(=O)N[C@@H]3CCNC3)c(S(N)(=O)=O)c2-c2nn[nH]n2)C[C@@H]1F (racemic) [Example 7]	4.46	0.78	2.00	3.49	0.24	0.39	0.20	0.39	0.78	0.68	–
C[C@H](CN)NS(=O)(=O)c1ccc(N2CC[C@@H](CN)[C@@H](F)C2)c(-c2nn[nH]n2)c1S(N)(=O)=O (racemic) [Example 8]	2.35	0.78	2.00	1.12	0.07	0.39	0.20	0.39	0.78	0.19	–
NC[C@@H](O)CNS(=O)(=O)c1ccc(N2CCC(C(N)CO)CC2)c(-c2nn[nH]n2)c1S(N)(=O)=O (single isomer, unassigned) [Example 180]	–	0.78	1.00	6.3	0.44	0.78	0.39	0.78	1.56	5.73	5.92
NC[C@@H](O)CNS(=O)(=O)c1ccc(N2CCC(C(N)CO)CC2)c(-c2nn[nH]n2)c1S(N)(=O)=O (single isomer, unassigned) [Example 181]	5.87	0.78	1.00	5.78	0.22	0.78	0.39	0.39	1.56	4.62	–
NCC=C1CCCN(c2ccc(S(=O)(=O)NC[C@H](O)CN)c(S(N)(=O)=O)c2-c2nn[nH]n2)C1 (single isomer, unassigned; isomer a) [Example 205]	1.07	12.50	8.00	19.7	0.34	1.56	0.78	1.56	1.56	7.59	–
NC/C=C1\CCCN(c2ccc(S(=O)(=O)NC[C@H](O)CN)c(S(N)(=O)=O)c2-c2nn[nH]n2)C1 (single isomer, unassigned; isomer b) [Example 206]	1.52	6.25	4.00	15.1	0.23	1.56	0.78	1.56	1.56	9.21	–
NCC1CCN(c2ccc(S(=O)(=O)N[C@@H]3CCNC3)c(S(N)(=O)=O)c2-c2nn[nH]n2)CCN1 (stereo partly drawn) [Example 163]	52.9	6.25	2.00	49	0.74	3.13	0.39	1.56	1.56	–	–
NC[C@@H](O)CNS(=O)(=O)c1ccc(Nc2ncc[nH]2)c(-c2nn[nH]n2)c1S(N)(=O)=O [Example 203, (R)-4-((1H-imidazol-2-yl)amino)-N1-(3-amino-2-hydroxypropyl)-3-(2-tetrazol-5-yl)benzene-1,2-disulfonamide bis(2,2,2-trifluoroacetate)]	19.6	3.13	2.00	26.4	8.5	1.56	0.20	0.78	0.78	–	–
